Test results from patent US20040018500A1, “Methods and systems for analyzing complex biological systems” (priority 2001, published 2004).

Tested on: Saccharomyces cerevisiae wild type strain BY4743
Assay: AF1 metabolite analysis (GC-MS, LC-MS) of yeast treated with antifungal drugs
Type: cell-based

Structure (SMILES): C[C@@H]1[C@H](O)[C@@H](C)/C=C/C=C/C=C/C=C/C=C/C=C/C=C/[C@H](O[C@@H]2O[C@H](C)[C@@H](O)[C@H](N)[C@@H]2O)C[C@@H]2O[C@](O)(C[C@@H](O)C[C@@H](O)[C@H](O)CC[C@@H](O)C[C@@H](O)CC(=O)O[C@H]1C)C[C@H](O)[C@H]2C(=O)O [Amphoteracin B]
- Fold Change of kinetin (nLC): 0
- Fold Change of lactic acid (nLC): −0.02583
- Fold Change of lauric acid (nLC): 0.1225
- Fold Change of leucine/isoleucine/ (nLC): 0.1319
- Fold Change of luteolin (nLC): 0
- Fold Change of malic acid (nLC): 0.6212
- Fold Change of malonic acid (nLC): 0
- Fold Change of menthol* (nLC): −0.07013
- Fold Change of methionine (nLC): 0
- Fold Change of nopaline (nLC): 0.3342
- Fold Change of oleic acid (nLC): 0.689
- Fold Change of ornithine (nLC): 2.534
- Fold Change of orotic acid (nLC): 8380
- Fold Change of palmitic acid (nLC): 0.3979
- Fold Change of phenylalanine (nLC): −0.1906
- Fold Change of phenylpyruvic acid (nLC): 0
- Fold Change of phosphoenolpyruvate (nLC): 0
- Fold Change of pinitol (nLC): 0
- Fold Change of pipecolic acid (nLC): 0.08112
- Fold Change of porphobilinogen (nLC): 0
- Fold Change of proline (nLC): 0.4603
- Fold Change of pyridoxine (nLC): −0.1294
- Fold Change of retinoic acid (nLC): 0
- Fold Change of salicylic/HObenzoic (nLC): 0
- Fold Change of selenoOLmethionine (nLC): 0.8515
- Fold Change of serine (nLC): 0.1091
- Fold Change of shikimic acid (nLC): 0
- Fold Change of sinapinic acid (nLC): 0
- Fold Change of sorbitol/mannitol (nLC): 0.2162
- Fold Change of succinic (nLC): 0.8663
- Fold Change of sucrose (nLC): 0.4493
- Fold Change of sugar-phosphate (nLC): −0.1067
- Fold Change of tetradecanoic acid (nLC): −0.07723
- Fold Change of threonine/homoserin (nLC): 0.1267
- Fold Change of thymine (nLC): 0
- Fold Change of tryptophan (nLC): 1.142
- Fold Change of tyrosine (nLC): 0.0982
- Fold Change of uracil (nLC): 1.511
- Fold Change of uridine (nLC): 0.1126
- Fold Change of urocanic acid (nLC): 0
- Fold Change of valine (nLC): 0.1624
- Fold Change of xanthosineDiH2O (nLC): 0
- Fold Change of zeatin (nLC): 0
- Fold Change of 4-aminobenzoic acid (pLC): 0
- Fold Change of 4-methylcatechol (pLC): 0
- Fold Change of 4ambutyrate/dimglyc (pLC): 0.01279
- Fold Change of 5hydroxyLtryptophan (pLC): 0
- Fold Change of 6benzylaminopurine (pLC): 0
- Fold Change of DL-aminoadipic acid (pLC): 0.4703
- Fold Change of NacetylDglucosamine (pLC): 0
- Fold Change of NacetylLglutamate (pLC): 0
- Fold Change of NacetylLornithine (pLC): 1.319
- Fold Change of adenine (pLC): 0.1153
- Fold Change of alanine/sarcosine (pLC): 0.2602
- Fold Change of allantoic acid (pLC): 0
- Fold Change of anthranilic acid (pLC): 0
- Fold Change of arginine (pLC): 0.4662
- Fold Change of argininosuccinate (pLC): 0
- Fold Change of asparagine (pLC): 0.6344
- Fold Change of aspartic acid (pLC): 0.3594
- Fold Change of biotin (pLC): 0
- Fold Change of caffeine (pLC): 0
- Fold Change of citric acid TME (pLC): 0
- Fold Change of citrulline (pLC): 1.798
- Fold Change of cytidine (pLC): 0
- Fold Change of cytosine (pLC): 0
- Fold Change of diaminopimelic acid (pLC): 0
- Fold Change of dihydrofolic acid (pLC): 0
- Fold Change of dipicolinic acid (pLC): 0
- Fold Change of folic acid (pLC): 0
- Fold Change of glucosamine (pLC): 0
- Fold Change of glucosamine6PO4 (pLC): 0
- Fold Change of glutamate (pLC): 0.4341
- Fold Change of glutathione (pLC): −0.03348
- Fold Change of histidine (pLC): 0
- Fold Change of hydrocortisone (pLC): 0
- Fold Change of hypoxanthine (pLC): 0.2057
- Fold Change of itaconic acid dimes (pLC): 0
- Fold Change of kinetin (pLC): 0
- Fold Change of leucine/isoleucine/ (pLC): 0.2746
- Fold Change of luteolin (pLC): 0
- Fold Change of mannitol (pLC): 0.4543
- Fold Change of methionine (pLC): 0.3299
- Fold Change of mevalonic lactone (pLC): −0.4606
- Fold Change of niacinamide (pLC): 0
- Fold Change of nicotinic acid (pLC): −0.9989
- Fold Change of nopaline (pLC): 0
- Fold Change of ornithine (pLC): 0.5049
- Fold Change of phenylalanine (pLC): 0.4036
- Fold Change of phosphoenolpyruvate (pLC): 0
- Fold Change of pipecolic acid (pLC): 0.5237
- Fold Change of progesterone (pLC): 0
- Fold Change of proline (pLC): 0.6707
- Fold Change of pyridoxine (pLC): −0.1684
- Fold Change of selenoDLmethionine (pLC): 1.178
- Fold Change of sugar-phosphate (pLC): 0
- Fold Change of thiamine (pLC): 0
- Fold Change of threonine/homoserin (pLC): 0.3145
- Fold Change of thymine (pLC): 0
- Fold Change of tryptophan (pLC): 0
- Fold Change of uric acid (pLC): 308
- Fold Change of urocanic acid (pLC): 0
- Fold Change of xanthosine(diH2O) (pLC): 0
- Fold Change of zeatin (pLC): 0
